{
  "source": "patent US4032625A",
  "about": "“Bone-seeking technetium-99m complex” (priority 1975, dated 1977)",
  "experiment": "Distribution of 99mTc-EHDP and 85Sr in rabbits, simultaneous study (Example 2, Table 1)",
  "type": "in vivo, New Zealand albino rabbits",
  "protocol": "Adult New Zealand albino rabbits having an average weight of 3.8 kg were utilized. Strontium-85 was employed as a standard for comparison. […] Each dosage is contained in a volume of 1 ml.\nThe animals were sacrificed serially from 1 to 24 hours after injection and the activities in major organs were determined by counting multiple samples from each organ in a scintillation well counter (the technetium-99m counts were corrected for the Compton contributions from the strontium-85 activity in the technetium-99m energy window). Multiple samples were counted from the tibia, femur, spine and pelvic bones; the total activity in the skeleton was estimated by assuming the whole skeleton consisted of equal proportions by weight of tibia, spine, femur and pelvis and that the skeletal mass was 10% of the body weight. The red marrow was sampled from the femur and the total marrow was assumed to be 2.2% of the total body weight. Similarly, blood volume was assumed to be 7% and the skeletal muscle 43% of the body weight. The whole liver and both kidneys were weighed and multiple samples from each were counted to measure the total activity in each organ.\nIn another series of experiments carried out as described above, localization of technetium from its tin-phosphonate complex was determined in the callous of three week-old fractures of tibia in albino rabbits, again in comparison with strontium-85. Comparative radioassay of technetium-99m administered as the pertechnetate was measured in the callous of tibial fractures in rabbits at one and four hours after administration.",
  "data": [
    {"molecule": "[85Sr]", "note": "[^85 Sr]", "values": [
      {"measurement": "% Dose in Whole Organ: Kidneys", "setting": "1 Hr", "result": 0.80, "unit": "% dose"},
      {"measurement": "% Dose in Whole Organ: Liver", "setting": "1 Hr", "result": 1.57, "unit": "% dose"},
      {"measurement": "% Dose in Whole Organ: One Femur", "setting": "1 Hr", "result": 1.04, "unit": "% dose"},
      {"measurement": "% Dose: Urine", "setting": "1 Hr", "result": 6.96, "unit": "% dose"},
      {"measurement": "% dose in whole organ: Blood (7% of body weight)", "setting": "1 Hr", "result": 11.9, "unit": "% dose"},
      {"measurement": "% dose in whole organ: Bone(Avg) (10% of body weight)", "setting": "1 Hr", "result": 56.0, "unit": "% dose"},
      {"measurement": "% dose in whole organ: Marrow (2.2% of body weight)", "setting": "1 Hr", "result": 0.91, "unit": "% dose"},
      {"measurement": "% dose in whole organ: Muscle (43% of body weight)", "setting": "1 Hr", "result": 13.4, "unit": "% dose"},
      {"measurement": "Bone/Muscle ratio", "setting": "1 Hr", "result": 19},
      {"measurement": "Ratio Bone/Blood", "setting": "1 Hr", "result": 3.4},
      {"measurement": "Ratio Bone/Marrow", "setting": "1 Hr", "result": 14},
      {"measurement": "Ratio Callus/N. Femur", "setting": "1 Hr", "result": 7},
      {"measurement": "Ratio Callus/N. Tibia", "setting": "1 Hr", "result": 9},
      {"measurement": "Ratio Plus/Blood", "setting": "1 Hr", "result": 18},
      {"measurement": "% Dose in Whole Organ: Kidneys", "setting": "2 Hrs", "result": 0.64, "unit": "% dose"},
      {"measurement": "% Dose in Whole Organ: Liver", "setting": "2 Hrs", "result": 0.98, "unit": "% dose"},
      {"measurement": "% Dose in Whole Organ: One Femur", "setting": "2 Hrs", "result": 1.21, "unit": "% dose"},
      {"measurement": "% Dose: Urine", "setting": "2 Hrs", "result": 18.0, "unit": "% dose"},
      {"measurement": "% dose in whole organ: Blood (7% of body weight)", "setting": "2 Hrs", "result": 7.08, "unit": "% dose"},
      {"measurement": "% dose in whole organ: Bone(Avg) (10% of body weight)", "setting": "2 Hrs", "result": 49.4, "unit": "% dose"},
      {"measurement": "% dose in whole organ: Marrow (2.2% of body weight)", "setting": "2 Hrs", "result": 0.76, "unit": "% dose"},
      {"measurement": "% dose in whole organ: Muscle (43% of body weight)", "setting": "2 Hrs", "result": 8.8, "unit": "% dose"},
      {"measurement": "Bone/Muscle ratio", "setting": "2 Hrs", "result": 32},
      {"measurement": "Ratio Bone/Blood", "setting": "2 Hrs", "result": 6.4},
      {"measurement": "Ratio Bone/Marrow", "setting": "2 Hrs", "result": 19},
      {"measurement": "% Dose in Whole Organ: Kidneys", "setting": "4 Hrs", "result": 0.34, "unit": "% dose"},
      {"measurement": "% Dose in Whole Organ: Liver", "setting": "4 Hrs", "result": 0.62, "unit": "% dose"},
      {"measurement": "% Dose in Whole Organ: One Femur", "setting": "4 Hrs", "result": 1.25, "unit": "% dose"},
      {"measurement": "% Dose: Urine", "setting": "4 Hrs", "result": 22.7, "unit": "% dose"},
      {"measurement": "% dose in whole organ: Blood (7% of body weight)", "setting": "4 Hrs", "result": 3.85, "unit": "% dose"},
      {"measurement": "% dose in whole organ: Bone(Avg) (10% of body weight)", "setting": "4 Hrs", "result": 68.1, "unit": "% dose"},
      {"measurement": "% dose in whole organ: Marrow (2.2% of body weight)", "setting": "4 Hrs", "result": 0.50, "unit": "% dose"},
      {"measurement": "% dose in whole organ: Muscle (43% of body weight)", "setting": "4 Hrs", "result": 6.46, "unit": "% dose"},
      {"measurement": "Bone/Muscle ratio", "setting": "4 Hrs", "result": 47},
      {"measurement": "Ratio Bone/Blood", "setting": "4 Hrs", "result": 13},
      {"measurement": "Ratio Bone/Marrow", "setting": "4 Hrs", "result": 32},
      {"measurement": "Ratio Callus/N. Femur", "setting": "4 Hrs", "result": 7},
      {"measurement": "Ratio Callus/N. Tibia", "setting": "4 Hrs", "result": 8},
      {"measurement": "Ratio Plus/Blood", "setting": "4 Hrs", "result": 81},
      {"measurement": "% Dose in Whole Organ: Kidneys", "setting": "24 Hrs", "result": 0.03, "unit": "% dose"},
      {"measurement": "% Dose in Whole Organ: Liver", "setting": "24 Hrs", "result": 0.04, "unit": "% dose"},
      {"measurement": "% Dose in Whole Organ: One Femur", "setting": "24 Hrs", "result": 0.93, "unit": "% dose"},
      {"measurement": "% dose in whole organ: Blood (7% of body weight)", "setting": "24 Hrs", "result": 0.29, "unit": "% dose"},
      {"measurement": "% dose in whole organ: Bone(Avg) (10% of body weight)", "setting": "24 Hrs", "result": 51.9, "unit": "% dose"},
      {"measurement": "% dose in whole organ: Marrow (2.2% of body weight)", "setting": "24 Hrs", "result": 0.10, "unit": "% dose"},
      {"measurement": "% dose in whole organ: Muscle (43% of body weight)", "setting": "24 Hrs", "result": 1.00, "unit": "% dose"},
      {"measurement": "Bone/Muscle ratio", "setting": "24 Hrs", "result": 227},
      {"measurement": "Ratio Bone/Blood", "setting": "24 Hrs", "result": 134},
      {"measurement": "Ratio Bone/Marrow", "setting": "24 Hrs", "result": 119}
    ]}
  ]
}
